Values of other authors in patent US8481060B2, “Melt-coated pharmaceutical composition with fast release” (Losan Pharma GmbH, priority 2008, dated 2013).

Settings: taste-masking compound (excipient)

## CCCCCCCCCCCCCCCC(=O)O [palmitinic acid]
  HLB: −5

## CCCCCCCCCCCCCCCCCCCCCC(=O)O [behenic acid]
  HLB: −8

## CCCCCCCCCCCCCCCCCCCC(=O)O [arachinic acid]
  HLB: −7

## CCCCCCCCCCCCCCCCC(=O)O [margaric acid]
  HLB: −6

## CCCCCCCCCCCCCCCCCC(=O)O [stearic acid]
  HLB: −6

## CCCCCCCCCCCCCCCCCCC(=O)O [nonadecane acid]
  HLB: −6
